Consider 9 molecules from US20210277009A1, “PRMT5 INHIBITORS” (Merck Sharp & Dohme Corp., priority 2018, published 2021).

Read-outs that look alike come from different tables or passages of the source.

Assay [1] addresses T1, PRMT5-MEP50 enzyme complex (Homo sapiens, UniProt O14744).
T1 construct: 1.25 nM of Full-length (FL)-PRMT5-MEP50 enzyme complex; made in house; host or cells: baculovirus-transfected Sf21 cells
As to the kind of experiment: PRMT5-MEP50 Enzyme Methylation Assay. The class given is biochemical. As to the method: PRMT5-MEP50 biochemical assay is a direct measurement of the methylation activity of the enzyme complex on a short peptide substrate derived from the N-terminus of H4 histone. Methylation experiment is performed with recombinant PRMT5-MEP50 protein complex. The assessment of inhibitory effect of small molecules is measured by tire effectiveness of the compounds to inhibit tins reaction (EC50).
In this assay, the potency (EC50) of each compound was determined from a twenty-point (1:2 serial dilution; top compound concentration of 100000 nM) titration curve using the following outlined procedure. To each well of a white ProxiPlus 384 well-plate, 100 nL of compound (1% DMSO in final assay volume of 10 μL) was dispensed, followed by the addition of 8 μL of 1× assay buffer (50 mM Bicine pH 8.0, 1 mM DTT, 0.004% Tween20, 0.01% BSA) containing 1.25 nM of Full-length (FL)-PRMT5-MEP50 enzyme complex (recombinant proteins from baculovirus-transfected Sf21 cells: FL-PRMT5; MW=[…] and FL-MEP50; MW=38614) and 1 μL of 150 μM S-(5′-Adenosyl)-L-Methionine Chloride (SAM). Plates were sealed and placed in a 37° C. humidified chamber for a 60 minutes pre-incubation with compound. Subsequently, each reaction was initiated by the addition of 1 μL 1× assay buffer containing 750 nM biotinylated H4R3(Mel) peptide. The final reaction in each well of 10 μL consists of 1.0 nM PRMT5-MEP50, 75 nM biotinylated-peptide, and […] SAM. Methylation reactions were allowed to proceed for 150 minutes in a sealed plate at 37° C. Reactions were immediately quenched by the addition of 1 μL of 5% formic acid. Plates were then frozen and shipped to SAMDITM Tech Inc. to determine the percent conversion from H4R3(Mel) to H4R3(Me2). Dose-response curves were generated by plotting percent effect (% product conversion; Y-axis) vs. Log 10 compound concentrations (X-axis). EC50 values were determined by non-linear regression according to models for either sigmoidal (4 parameters) or biphasic (7 parameters) dose-response curves.

In assay [2] the test system is symmetric dimethylation of arginine (SDMA) of PRMT5 substrates in MCF-7 cells. As to the kind of experiment: PRMT5 Cell Target Engagement (TE) Assay. The settings on record: Homo sapiens, MCF7, 72 h, treated for 3 days, nuclear SDMA by high content imaging, top concentration 10000 nM. The class given is cell-based. From the text:
The PRMT5 TE assay is a biomarker assay for identifying compounds that inhibit symmetric dimethylation of arginine (SDMA) of PRMT5 substrates. The following substrates have been reported for PRMT5: histone H2A and H4 R3, Histone H3 R2, Histone H3 R8, spliceosome Sm proteins, ribosomal protein RPS10, p53, FEN1, nudeoplasmin, nucleolin, EGFR and EBNA. The assay will focus on detecting symmetrically dimethylated nuclear proteins using high content imaging technology. Detection of the expression of symmetrically dimethylated nuclear proteins is through a mixture of primary rabbit monoclonal antibodies to SDMA (CST 13222), which in turn recognized by an Alexafluor 488 dye-conjugated anti-rabbit IgG secondary antibody. The IN Cell Analyzer 2200 or Opera-Phenix measures nuclear Alexafluor 488 fluorescent dye intensity that is directly related to the level of expression of symmetrically dimethylated nuclear proteins at the single cell level. Nuclear AF488 dye intensities are compared to the mean value for DMSO treated cells (MIN) to report percent of inhibition for each compound-treated well.
In this assay, the cell potency (EC50) of each compound was determined from a ten point (1:3 serial dilution; top compound concentration of 10000 nM) titration curve using the following outlined procedure. Each well of a BD falcon collagen coated black/clear bottom 384-well plate was seeded with 4000 MCF-7 cells in 30 μl media and allowed to attach for 5 h. Media is ATCC-formulated Eagle's Minimum Essential Medium, Catalog No. 30-2003. To make the complete growth medium, the following components were added to the base medium: 0.01 mg/ml human recombinant insulin; fetal bovine serum to a final concentration of 10%. Additional 30 μl of media containing 2× compounds were added to each well. Cells were treated for 3 days in 37° C. CO2 incubator. On day 3, cells were fixed with Cytofix, permeablized with 0.4% Triton-X-100/Cytofix, and washed with D-PBS without Ca/Mg. Cells were blocked with Licor Odessey blocking reagent for 1 h at room temperature, followed by incubation with anti-SDMA (1:1000) antibody at 4° C. overnight. 1° antibody was removed, followed by three washings with DPBS without Ca/Mg and 0.05% Tween20. Hoechst (5 μg/ml), Cell Mask deep stain (1:2000) and Alexa488-conjugated goat anti-rabbit IgG (2 μg/mL) was added for 1 hour at room temperature. A final washing step (three washes) was performed before sealing plate for imaging on In Cell Analyzer 2200 or Opera-Phenix. Images from analyzer were uploaded to Columbus (at WP or BOS) for image analysis. IC50 values were determined by 4 parameters robust fit of percent fluorescence units vs. (Logic) compound concentrations.

Where [3] appears, read: single EC50 from 4 parameters single site sigmoidal model, or first EC50 of 7 parameters biphasic model, 1.0 nM PRMT5-MEP50, H4R3(Me1) peptide, SAM, read-out: Enzyme Methylation Assay (EC50 or EC50_1).
Where [4] appears, read: second EC50 of 7 parameters biphasic model, read-out: Enzyme Methylation Assay (EC50_2).

T1 sequence (O14744 whole entry): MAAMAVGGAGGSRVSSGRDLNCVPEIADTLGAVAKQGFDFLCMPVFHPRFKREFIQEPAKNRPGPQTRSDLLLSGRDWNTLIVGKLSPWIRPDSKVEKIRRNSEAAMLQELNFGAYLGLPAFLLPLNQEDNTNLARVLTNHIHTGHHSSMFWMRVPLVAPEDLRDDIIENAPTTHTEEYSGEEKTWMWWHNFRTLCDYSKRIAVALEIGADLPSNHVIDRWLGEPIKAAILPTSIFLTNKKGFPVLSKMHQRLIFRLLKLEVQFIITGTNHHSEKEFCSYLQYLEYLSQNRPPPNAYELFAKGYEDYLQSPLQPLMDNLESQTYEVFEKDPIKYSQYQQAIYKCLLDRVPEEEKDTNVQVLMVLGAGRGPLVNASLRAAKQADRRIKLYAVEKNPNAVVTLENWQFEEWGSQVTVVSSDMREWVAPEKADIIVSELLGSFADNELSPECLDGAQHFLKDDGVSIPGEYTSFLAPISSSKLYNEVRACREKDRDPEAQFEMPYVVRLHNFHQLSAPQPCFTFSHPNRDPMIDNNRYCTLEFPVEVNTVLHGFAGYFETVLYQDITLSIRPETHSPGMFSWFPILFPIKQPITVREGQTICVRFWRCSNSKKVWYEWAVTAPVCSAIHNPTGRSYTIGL
T1 sequence (Q9BQA1 whole entry partner): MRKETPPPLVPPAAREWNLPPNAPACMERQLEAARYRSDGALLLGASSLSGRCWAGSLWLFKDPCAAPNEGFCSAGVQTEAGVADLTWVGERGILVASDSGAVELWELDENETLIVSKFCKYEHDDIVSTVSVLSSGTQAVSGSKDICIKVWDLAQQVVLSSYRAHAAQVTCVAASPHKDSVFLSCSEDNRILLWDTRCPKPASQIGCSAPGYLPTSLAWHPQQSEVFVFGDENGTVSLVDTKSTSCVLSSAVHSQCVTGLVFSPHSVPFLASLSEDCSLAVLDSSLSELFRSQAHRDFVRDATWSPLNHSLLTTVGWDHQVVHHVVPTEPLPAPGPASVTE

As to `CNc1ncnc2c1ccn2[C@@H]1S[C@](C)(CCc2ccc3cc(Br)c(N)nc3c2)[C@@H](O)[C@H]1O` [Example 33, (2R,3S,4R,5R)-2-(2-(2-amino-3-bromoquinolin-7-yl)ethyl)-2-methyl-5-(4-(methylamino)-7H-pyrrolo[2,3-d]pyrimidin-7-yl)tetrahydrothiophene-3,4-diol], the values for the EC50 in assay [1] (setting [3]) and in assay [2] were 0.8 nM and 13.5 nM, respectively.
Regarding `Cc1cn([C@@H]2S[C@H](CCc3ccc4cc(Br)c(N)nc4c3)[C@@H](O)[C@H]2O)c2ncnc(N)c12` [Example 34, (2R,3S,4R,5R)-2-(2-(2-amino-3-bromoquinolin-7-yl)ethyl)-5-(4-amino-5-methyl-7H-pyrrolo[2,3-d]pyrimidin-7-yl)tetrahydrothiophene-3,4-diol], the EC50 in assay [1] (setting [4]) stood at 151 nM; in assay [1] (setting [3]), 0.5 nM; in assay [2] it was 29.1 nM.
`Cc1nc(N)c2ccn([C@@H]3S[C@H](CCc4ccc5cc(Br)c(N)nc5c4)[C@@H](O)[C@H]3O)c2n1` [Example 35, (2R,3R,4S,5R)-2-(4-amino-2-methyl-7H-pyrrolo[2,3-d]pyrimidin-7-yl)-5-(2-(2-amino-3-bromoquinolin-7-yl)ethyl)tetrahydrothiophene-3,4-diol]: the EC50 in assay [1] (setting [3]) is 1.7 nM; in assay [2], 35.6 nM.
Turning to `CNc1ncnc2c1ccn2[C@@H]1S[C@H](CCc2ccc3cc(Br)c(N)nc3c2)[C@@H](O)[C@H]1O` [Example 36], the EC50 in assay [1] (setting [4]) worked out at 15.3 nM; in assay [1] (setting [3]) it was 0.6 nM; in assay [2], 81.1 nM.
For `Nc1nc2cc(CC[C@H]3S[C@@H](n4cc(F)c5c(N)ncnc54)[C@H](O)[C@@H]3O)ccc2cc1Br` [Example 37, (2R,3S,4R,5R)-2-(2-(2-amino-3-bromoquinolin-7-yl)ethyl)-5-(4-amino-5-fluoro-7H-pyrrolo[2,3-d]pyrimidin-7-yl)tetrahydrothiophene-3,4-diol], in that order: 16.2 nM, 0.4 nM and 9.5 nM.
Turning to `Cc1nc(N)nc2c1ccn2[C@@H]1S[C@H](CCc2ccc3cc(Br)c(N)nc3c2)[C@@H](O)[C@H]1O` [Example 38, (2R,3S,4R,5R)-2-(2-(2-amino-3-bromoquinolin-7-yl)ethyl)-5-(2-amino-4-methyl-7H-pyrrolo[2,3-d]pyrimidin-7-yl)tetrahydrothiophene-3,4-diol], the EC50 turned out to be 0.5 nM in assay [1] (setting [3]) and 7.2 nM in assay [2].
For the molecule `Cc1ncnc2c1ccn2[C@@H]1S[C@@H](CCc2ccc3cc(C(F)F)c(N)nc3c2)[C@@H](O)[C@H]1O` [Example 41, (2S,3S,4R,5R)-2-(2-(2-amino-3-(difluoromethyl)quinolin-7-yl)ethyl)-5-(4-methyl-7H-pyrrolo[2,3-d]pyrimidin-7-yl)tetrahydrothiophene-3,4-diol], the EC50 in assay [1] (setting [4]) was 661 nM; in assay [1] (setting [3]) it was 1.2 nM; in assay [2] it was 123 nM.
For the molecule `Nc1nc2cc(CC[C@@H]3S[C@@H](n4ccc5c(N)ncnc54)[C@H](O)[C@@H]3O)ccc2cc1Cl` [Example 42, (2S,3S,4R,5R)-2-(2-(2-amino-3-chloroquinolin-7-yl)ethyl)-5-(4-amino-7H-pyrrolo[2,3-d]pyrimidin-7-yl)tetrahydrothiophene-3,4-diol], the values for the EC50 in assay [1] (setting [3]) and in assay [2] were 0.8 nM and 2.4 nM, respectively.
The corresponding values for `Nc1nc2cc(CC[C@H]3S[C@@H](n4ccc5c(N)ncnc54)[C@H](O)[C@@H]3O)ccc2cc1Cl` [Example 43, (2R,3S,4R,5R)-2-(2-(2-amino-3-chloroquinolin-7-yl)ethyl)-5-(4-amino-7H-pyrrolo[2,3-d]pyrimidin-7-yl)tetrahydrothiophene-3,4-diol] are 0.7 nM and 2.4 nM.
